Measurements from patent US20140023653A1, “BOLDINE DERIVATIVES FOR PROMOTING BONE GROWTH” (OSTEOGENEX, INC., priority 2012, published 2014).

Molecular target: T1, Sclerostin (Homo sapiens, UniProt Q9BQB4)
T1 construct: host or cells: human embryonic cells (reporter cells)
T1 sequence (Q9BQB4 24-213): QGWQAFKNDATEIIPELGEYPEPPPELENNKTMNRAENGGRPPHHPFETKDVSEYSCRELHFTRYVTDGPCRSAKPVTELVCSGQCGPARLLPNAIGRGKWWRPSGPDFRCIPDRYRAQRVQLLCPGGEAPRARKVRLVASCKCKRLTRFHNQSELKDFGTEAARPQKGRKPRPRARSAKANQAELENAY
Experiment: Luciferase Wnt pathway activity assay: inhibition of sclerostin by restoration of Wnt signaling in human cells
Format: cell-based
Experimental: The Y axis represents Relative Light Units (RLU) which represents Wnt pathway signaling. Addition of Wnt (W) activates the Wnt pathway, while addition of Sclerostin (S) inhibits the Wnt pathway. […] Compound concentrations are indicated in μM.
Briefly, cells (e.g., human cells) are treated with a predetermined dose of a candidate compound for a complete dosing schedule.
Concentrations are indicated along the X axis in micromolar values.

Compound: COc1cc2c(cc1O)C[C@H]1c3c(cc(O)c(OC)c3-2)CCN1C [Compound 1, (S)-1,10-dimethoxy-6-methyl-5,6,6a,7-tetrahydro-4H-dibenzo[de,g]quinoline-2,9-diol]
- IC50: 5 µM
